ChEMBL document CHEMBL5233280, “Berberine improves liver injury induced glucose and lipid metabolic disorders via alleviating ER stress of hepatocytes and modulating gut microbiota in mice” (Bioorg Med Chem, 2021)
Calls of active or inactive are those of the source.

Columns and labels:
Type in all cases: functional, organism-based
Mus musculus [1] = test: Protection against tunicamycin-induced ER stress-mediated liver injury in C57BL/6 mouse assessed as normal liver histology at 75 to 300 mg/kg, ig administered for 3 days and on day 3 administered with tunicamycin after 2 hrs and measured after 24 hrs by Hematoxylin-eosin staining based microscopic analysis; conditions: dose 75-300 mg/kg, time 4.0 day
Mus musculus [2] = test: Protection against tunicamycin-induced gut microbiota dysbiosis in C57BL/6 mouse assessed as increase in Epsilonbacteraeota-abundance in colon at 75 to 300 mg/kg, ig administered for 3 days and on day 3 administered with tunicamycin after 2 hrs and measured after 24 hrs; conditions: dose 75-300 mg/kg, time 4.0 day
Mus musculus [3] = test: Protection against tunicamycin-induced ER stress in C57BL/6 mouse assessed as downregulation of GRP78 protein expression in liver at 150 mg/kg, ig administered for 3 days and on day 3 administered with tunicamycin after 2 hrs and measured after 24 hrs by western blot analysis; conditions: time 4.0 day
Mus musculus [4] = test: Protection against tunicamycin-induced ER stress-mediated liver injury in C57BL/6 mouse assessed as plasma ALT level at 75 to 300 mg/kg, ig administered for 3 days and on day 3 administered with tunicamycin after 2 hrs and measured after 24 hrs; conditions: dose 75-300 mg/kg, time 4.0 day
Mus musculus [5] = test: (§1) Protection against tunicamycin-induced liver injury-mediated hepatic metabolic disorders in C57BL/6 mouse assessed as inhibition of lipid metabolic disorders by measuring increase in plasma LDL-C level at 75 to 300 mg/kg, ig administered for 3 days and on day 3 administered with tunicamycin after 2 hrs and measured after 24 hrs; conditions: dose 75-300 mg/kg, time 4.0 day
Mus musculus [6] = test: Protection against tunicamycin-induced ER stress in C57BL/6 mouse assessed as downregulation of GRP78 gene expression in liver at 150 mg/kg, ig administered for 3 days and on day 3 administered with tunicamycin after 2 hrs and measured after 24 hrs by RT-qPCR analysis; conditions: time 4.0 day
Mus musculus [7] = test: (§2) Protection against tunicamycin-induced liver injury-mediated hepatic metabolic disorders in C57BL/6 mouse assessed as increase in ACCalpha1 gene expression at 75 to 300 mg/kg, ig administered for 3 days and on day 3 administered with tunicamycin after 2 hrs and measured after 24 hrs by RT-qPCR analysis; conditions: dose 75-300 mg/kg, time 4.0 day
Mus musculus [8] = test: Reduction in plasma albumin level in tunicamycin-induced liver injury C57BL/6 mouse model at 75 to 300 mg/kg, ig administered for 3 days and on day 3 administered with tunicamycin after 2 hrs and measured after 24 hrs; conditions: dose 75-300 mg/kg, time 4.0 day
Mus musculus [9] = test: Protection against tunicamycin-induced UPR response in C57BL/6 mouse assessed as downregulation of phosphorylated eIF2alpha protein expression in liver at 150 mg/kg, ig administered for 3 days and on day 3 administered with tunicamycin after 2 hrs and measured after 24 hrs by western blot analysis; conditions: time 4.0 day
Mus musculus [10] = test: as §1, with “TC” for “LDL-C”; conditions: dose 75-300 mg/kg, time 4.0 day
Mus musculus [11] = test: Protection against tunicamycin-induced UPR response in C57BL/6 mouse assessed as downregulation of IRE1alpha protein expression in liver at 150 mg/kg, ig administered for 3 days and on day 3 administered with tunicamycin after 2 hrs and measured after 24 hrs by western blot analysis; conditions: time 4.0 day
Mus musculus [12] = test: Protection against tunicamycin-induced liver injury-mediated hepatic metabolic disorders in C57BL/6 mouse assessed as increase in phosphorylated Akt level in liver at 150 mg/kg, ig administered for 3 days and on day 3 administered with tunicamycin after 2 hrs and measured after 24 hrs in presence of insulin by western blot analysis; conditions: time 4.0 day
Mus musculus [13] = test: Protection against tunicamycin-induced gut microbiota dysbiosis in C57BL/6 mouse assessed as decrease in ratio of Prevotellaceae-to-Erysipelotrichaceae in colon at 75 to 300 mg/kg, ig administered for 3 days and on day 3 administered with tunicamycin after 2 hrs and measured after 24 hrs; conditions: dose 75-300 mg/kg, time 4.0 day
Mus musculus [14] = test: Protection against tunicamycin-induced UPR response in C57BL/6 mouse assessed as downregulation of PERK protein expression in liver at 150 mg/kg, ig administered for 3 days and on day 3 administered with tunicamycin after 2 hrs and measured after 24 hrs by western blot analysis; conditions: time 4.0 day
Mus musculus [15] = test: Protection against tunicamycin-induced ER stress in C57BL/6 mouse assessed as downregulation of CHOP gene expression in liver at 150 mg/kg, ig administered for 3 days and on day 3 administered with tunicamycin after 2 hrs and measured after 24 hrs by RT-qPCR analysis; conditions: time 4.0 day
Mus musculus [16] = test: as §1, with “decrease” for “increase”, “liver TG” for “plasma LDL-C”; conditions: dose 75-300 mg/kg, time 4.0 day
Mus musculus [17] = test: as §2, with “PPARgamma2” for “ACCalpha1”; conditions: dose 75-300 mg/kg, time 4.0 day
Mus musculus [18] = test: Protection against tunicamycin-induced liver injury-mediated hepatic metabolic disorders in C57BL/6 mouse assessed as TC level in liver at 75 to 300 mg/kg, ig administered for 3 days and on day 3 administered with tunicamycin after 2 hrs and measured after 24 hrs; conditions: dose 75-300 mg/kg, time 4.0 day
Mus musculus [19] = test: as §1, with “HDL-C” for “LDL-C”; conditions: dose 75-300 mg/kg, time 4.0 day
Mus musculus [20] = test: Protection against tunicamycin-induced UPR response in C57BL/6 mouse assessed as downregulation of ATF6 gene expression in liver at 150 mg/kg, ig administered for 3 days and on day 3 administered with tunicamycin after 2 hrs and measured after 24 hrs by RT-qPCR analysis; conditions: time 4.0 day
Mus musculus [21] = test: as §2, with “reduction” for “increase”, “TRB3” for “ACCalpha1”, “expression in liver” for “expression”, “150” for “75 to 300”; conditions: time 4.0 day
Mus musculus [22] = test: as §2, with “PPARgamma1” for “ACCalpha1”; conditions: dose 75-300 mg/kg, time 4.0 day
Mus musculus [23] = test: Protection against tunicamycin-induced UPR response in C57BL/6 mouse assessed as downregulation of PERK gene expression in liver at 150 mg/kg, ig administered for 3 days and on day 3 administered with tunicamycin after 2 hrs and measured after 24 hrs by RT-qPCR analysis; conditions: time 4.0 day
Mus musculus [24] = test: Protection against tunicamycin-induced liver injury-mediated hepatic metabolic disorders in C57BL/6 mouse assessed as increase in CD36 gene expression at 150 mg/kg, ig administered for 3 days and on day 3 administered with tunicamycin after 2 hrs and measured after 24 hrs by RT-qPCR analysis; conditions: time 4.0 day
Mus musculus [25] = test: Protection against tunicamycin-induced liver injury-mediated hepatic metabolic disorders in C57BL/6 mouse assessed as reduction in FGF21 level in serum at 75 to 300 mg/kg, ig administered for 3 days and on day 3 administered with tunicamycin after 2 hrs and measured after 24 hrs by ELISA; conditions: dose 75-300 mg/kg, time 4.0 day
Mus musculus [26] = test: Protection against tunicamycin-induced gut microbiota dysbiosis in C57BL/6 mouse assessed as increase in Pediococcus-pentosaceus abundance in colon at 150 mg/kg, ig administered for 3 days and on day 3 administered with tunicamycin after 2 hrs and measured after 24 hrs by LEfse analysis; conditions: time 4.0 day
Mus musculus [27] = test: Protection against tunicamycin-induced ER stress in C57BL/6 mouse assessed as downregulation of CHOP protein expression in liver at 150 mg/kg, ig administered for 3 days and on day 3 administered with tunicamycin after 2 hrs and measured after 24 hrs by western blot analysis; conditions: time 4.0 day
Mus musculus [28] = test: Protection against tunicamycin-induced liver injury-mediated hepatic metabolic disorders in C57BL/6 mouse assessed as LDL-C level in liver at 75 to 300 mg/kg, ig administered for 3 days and on day 3 administered with tunicamycin after 2 hrs and measured after 24 hrs; conditions: dose 75-300 mg/kg, time 4.0 day
Mus musculus [29] = test: as §1, with “TG” for “LDL-C”; conditions: dose 75-300 mg/kg, time 4.0 day
Mus musculus [30] = test: Protection against tunicamycin-induced liver injury-mediated hepatic metabolic disorders in C57BL/6 mouse assessed as HDL-C level in liver at 75 to 300 mg/kg, ig administered for 3 days and on day 3 administered with tunicamycin after 2 hrs and measured after 24 hrs; conditions: dose 75-300 mg/kg, time 4.0 day
Mus musculus [31] = test: Protection against tunicamycin-induced liver injury-mediated hepatic metabolic disorders in C57BL/6 mouse assessed as increase in CYP7A1 gene expression at 75 to 300 mg/kg, ig administered for 3 days and on day 3 administered with tunicamycin after 2 hrs and measured after 24 hrs by RT-qPCR analysis; conditions: dose 75-300 mg/kg, time 4.0 day
Mus musculus [32] = test: Protection against tunicamycin-induced liver injury-mediated hepatic metabolic disorders in C57BL/6 mouse assessed as increase in SCD1 gene expression at 75 to 300 mg/kg, ig administered for 3 days and on day 3 administered with tunicamycin after 2 hrs and measured after 24 hrs by RT-qPCR analysis; conditions: dose 75-300 mg/kg, time 4.0 day
Mus musculus [33] = test: as §1, with “in plasma VLDL-C level at” for “in plasma LDL-C level at”, “24 hrs by ELISA” for “24 hrs”; conditions: dose 75-300 mg/kg, time 4.0 day
Mus musculus [34] = test: Effect on Akt protein expression in liver of tunicamycin-induced liver injury C57BL/6 mouse model at 75 to 300 mg/kg, ig administered for 3 days and on day 3 administered with tunicamycin after 2 hrs and measured after 24 hrs in presence of insulin by western blot analysis; conditions: dose 75-300 mg/kg, time 4.0 day
Mus musculus [35] = test: Protection against tunicamycin-induced ER stress-mediated liver injury in C57BL/6 mouse assessed as normal liver morphology at 75 to 300 mg/kg, ig administered for 3 days and on day 3 administered with tunicamycin after 2 hrs and measured after 24 hrs; conditions: dose 75-300 mg/kg, time 4.0 day
Mus musculus [36] = test: Protection against tunicamycin-induced liver injury-mediated hepatic metabolic disorders in C57BL/6 mouse assessed as increase in FXR gene expression at 75 to 300 mg/kg, ig administered for 3 days and on day 3 administered with tunicamycin after 2 hrs and measured after 24 hrs by RT-qPCR analysis; conditions: dose 75-300 mg/kg, time 4.0 day
Mus musculus [37] = test: Protection against tunicamycin-induced gut microbiota dysbiosis in C57BL/6 mouse assessed as increase in Erysipelotrichaceae- abundance in colon at 75 to 300 mg/kg, ig administered for 3 days and on day 3 administered with tunicamycin after 2 hrs and measured after 24 hrs; conditions: dose 75-300 mg/kg, time 4.0 day
Mus musculus [38] = test: Protection against tunicamycin-induced gut microbiota dysbiosis in C57BL/6 mouse assessed as increase in proteobacteria abundance in colon at 75 to 300 mg/kg, ig administered for 3 days and on day 3 administered with tunicamycin after 2 hrs and measured after 24 hrs; conditions: dose 75-300 mg/kg, time 4.0 day
Mus musculus [39] = test: Protection against tunicamycin-induced gut microbiota dysbiosis in C57BL/6 mouse assessed as decrease in prevotellaceae-abundance in colon at 75 to 300 mg/kg, ig administered for 3 days and on day 3 administered with tunicamycin after 2 hrs and measured after 24 hrs; conditions: dose 75-300 mg/kg, time 4.0 day
Mus musculus [40] = test: as §2, with “reduction” for “increase”, “FGF21” for “ACCalpha1”, “expression in liver” for “expression”; conditions: dose 75-300 mg/kg, time 4.0 day
Mus musculus [41] = test: Protection against tunicamycin-induced ER stress-mediated liver injury in C57BL/6 mouse assessed as plasma AST level at 75 to 300 mg/kg, ig administered for 3 days and on day 3 administered with tunicamycin after 2 hrs and measured after 24 hrs; conditions: dose 75-300 mg/kg, time 4.0 day

COc1ccc2cc3[n+](cc2c1OC)CCc1cc2c(cc1-3)OCO2
inactive: Activity (Mus musculus [4]) | Activity (Mus musculus [7]) | Activity (Mus musculus [17]) | Activity (Mus musculus [18]) | Activity (Mus musculus [22]) | Activity (Mus musculus [28]) | Activity (Mus musculus [30]) | Activity (Mus musculus [31]) | Activity (Mus musculus [32]) | Activity (Mus musculus [34]) | Activity (Mus musculus [36]) | Activity (Mus musculus [41])
active: Activity (Mus musculus [1]) | Activity (Mus musculus [2]) | Activity (Mus musculus [3]) | Activity (Mus musculus [5]) | Activity (Mus musculus [6]) | inhibition (Mus musculus [8]) | Activity (Mus musculus [9]) | Activity (Mus musculus [10]) | Activity (Mus musculus [11]) | Activity (Mus musculus [12]) | Activity (Mus musculus [13]) | Activity (Mus musculus [14]) | Activity (Mus musculus [15]) | Activity (Mus musculus [16]) | Activity (Mus musculus [19]) | Activity (Mus musculus [20]) | Activity (Mus musculus [21]) | Activity (Mus musculus [23]) | Activity (Mus musculus [24]) | Activity (Mus musculus [25]) | Activity (Mus musculus [26]) | Activity (Mus musculus [27]) | Activity (Mus musculus [29]) | Activity (Mus musculus [33]) | Activity (Mus musculus [35]) | Activity (Mus musculus [37]) | Activity (Mus musculus [38]) | Activity (Mus musculus [39]) | Activity (Mus musculus [40])
